Values of other authors as cited in EP0721734A1, “PESTICIDE COMPOSITION” (NIPPON SODA CO., LTD., priority 1993, dated 1995).

Q: With `CCN(Cc1ccc(Cl)nc1)C(=C[N+](=O)[O-])NC` [2-methylamino-2-[N-ethyl-(2-chloro-5-pyridyl)methylamino]-nitoroethylene] as the compound, how does the water solubility read?
A: Its water solubility is “up to 600 g/l”.

Q: With `CCSCc1ccccc1OC(=O)NC` [Ethiophencalb] as the compound, how does the water solubility read?
A: Its water solubility is 1,900 ppm.

Q: With `CCc1cccc(C)c1N(C(=O)CCl)C(C)COC` (stereo not drawn) [Metolachlor] as the compound, how does the water solubility read?
A: The water solubility was 530 ppm.

Q: For `CCCC(Cn1cncn1)c1ccc(Cl)cc1Cl` (stereo not drawn) [Penconasole], which water solubility is on record?
A: The water solubility was 70 ppm.

Q: Which water solubility does the source give for `CCO[PH](=O)[O-].CCO[PH](=O)[O-].CCO[PH](=O)[O-].[Al+3]` [Phosethyl-Alminium] here?
A: The water solubility was 120 g/L.

Q: For `CC(=NC#N)N(C)Cc1ccc(Cl)nc1` [active substance-1, N^1-[(2-chloro-5-pyridyl)methyl]-N^2-cyano-N^1-methylacetamidine], which water solubility is on record?
A: The water solubility was 3,700 ppm.
